# Laboratory results: patent US20160235727A1, “NOVEL PYRROLIDINE DERIVED BETA 3 ADRENERGIC RECEPTOR AGONISTS” (Merck Sharp & Dohme Corp., priority 2013, published 2016)
# Biological target: T1, human β3-AR (Homo sapiens, UniProt P13945)
# T1 construct: expressed in transfected cells; host or cells: CHO (Chinese hamster ovary) cells, stably transfected
# Experiment: cAMP functional agonist assay (LANCE TR-FRET) in CHO cells expressing cloned human β3-AR
# Type: cell-based
# Settings: for EC50: CHO cells stably expressing cloned human β3-adrenoceptor, cAMP release, read-out: Human β3-AR Agonism EC50; for Human β3-AR Agonist Activity (%): percent maximum activation relative to isoproterenol; for Fold drop in potency vs. 2-chloropyridine analog: EC50 of comparative example divided by EC50 of corresponding 2-chloropyridine compound
# Protocol: The ability of compounds to activate the human β3-AR receptor was measured using a CHO cell line stably expressing the cloned human β1-, β2-, and β3-adrenoceptors (β-AR). […] To quantify the amount of cAMP released following β-AR activation, the LANCE cAMP kit (Perking Elmer), a time-resolved fluorescence resonance energy transfer immunoassay, was used. Compounds were serially diluted in DMSO and an aliquot added to either 384-well or 96-well micro titer plates in assay buffer (5 mM HEPES, 0.1% BSA in Hank's Balanced Salt Solution). […] Following 30 min incubation at room temperature, the cells were lysed by the addition of LANCE detection buffer which contained a europium-labeled cAMP tracer. Fluorescence was measured following one hour incubation at room temperature using a Perking Elmer Envision plate reader, exciting at 340 nm and measuring emission at 615 nm and 665 nm. For each assay, a cAMP standard curve was included and used to convert fluorescence readings directly to cAMP amounts. The values were then normalized to isoproterenol, a known full agonist of β-AR, which was titrated in every assay and the EC50 determined using a custom in-house data analysis package. Along with EC50, the percent maximum activation relative to isoproterenol is reported.
# The cAMP production is measured using a homogenous time-resolved fluorescence resonance energy transfer immunoassay (LANCE™, Perkin Elmer) according to the manufacture's instructions. Chinese hamster ovary (CHO) cells, stably transfected with the cloned β-adrenergic receptor (β1, β2 or β3) are harvested after 3 days of subculturing. Harvesting of cells is done with Enzyme-free Dissociation Media (Specialty Media). Cells are then counted and resuspended in assay buffer (Hank's Balanced salt solution supplemented with 5 mM HEPES, […]) containing a phosphodiesterase inhibitor (IBMX, 0.6 mM). The reaction is initiated by mixing 6,000 cells in 6 μL with 6 μL Alexa Fluor labeled cAMP antibody (LANCE™ kit) which is then added to an assay well containing 12 μL of compound (diluted in assay buffer to 2× final concentration). The reaction proceeds for 30 minutes at RT and is terminated by the addition of 24 ul detection buffer (LANCE™ kit). The assay plate is then incubated for 1 h at RT and time-resolved fluorescence measured on a Perkin Elmer Envision reader or equivalent. The unknown cAMP level is determined by comparing fluorescence levels to a cAMP standard curve.
# The non-selective, full agonist β-adrenergic ligand isoproterenol is used at all three receptors to determine maximal stimulation. […] Data are analyzed using Microsoft Excel and Graphpad Prism or an internally developed data analysis software package. […]
# T1 sequence (P13945 whole entry): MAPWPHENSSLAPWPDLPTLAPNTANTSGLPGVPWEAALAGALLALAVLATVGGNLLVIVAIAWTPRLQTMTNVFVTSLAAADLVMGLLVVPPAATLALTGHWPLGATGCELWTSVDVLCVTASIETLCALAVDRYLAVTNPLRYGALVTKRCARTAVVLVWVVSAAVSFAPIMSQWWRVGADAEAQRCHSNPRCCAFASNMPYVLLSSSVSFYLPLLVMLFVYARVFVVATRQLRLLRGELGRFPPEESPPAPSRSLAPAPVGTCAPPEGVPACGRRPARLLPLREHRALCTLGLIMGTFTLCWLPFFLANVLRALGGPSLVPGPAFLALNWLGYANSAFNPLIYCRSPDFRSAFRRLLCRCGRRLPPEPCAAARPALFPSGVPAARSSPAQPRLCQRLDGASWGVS
Compound,EC50 [nM],Human β3-AR Agonist Activity (%),Fold drop in potency vs. 2-chloropyridine analog [fold]
"CCOc1cc(CN(C)C(=O)c2ccc(C[C@@H]3CC[C@H]([C@H](O)c4ccc(Cl)nc4)N3)cc2)[nH]n1 [Example 11-A, 4-(((2S,5R)-5-((R)-(6-chloropyridin-3-yl)(hydroxy)methyl)pyrrolidin-2-yl)methyl)-N-((5-ethoxy-1H-pyrazol-3-yl)methyl)-N-methylbenzamide]",7,95,–
"CCOc1cc(CN(C)C(=O)c2ccc(C[C@@H]3CC[C@H]([C@H](O)c4ccccc4)N3)cc2)n[nH]1 [Example 11-B, N-((5-ethoxy-1H-pyrazol-3-yl)methyl)-4-(((2S,5R)-5-((R)-hydroxy(phenyl)methyl)pyrrolidin-2-yl)methyl)-N-methylbenzamide]",26,116,4.0
"CCc1[nH]nc(CN(C)C(=O)c2ccc(C[C@@H]3CC[C@H]([C@H](O)c4ccc(Cl)nc4)N3)cc2)c1C [Example 12-A, 4-(((2S,5R)-5-((R)-(6-chloropyridin-3-yl)(hydroxy)methyl)pyrrolidin-2-yl)methyl)-N-((5-ethyl-4-methyl-1H-pyrazol-3-yl)methyl)-N-methylbenzamide]",13,95,–
"CCc1[nH]nc(CN(C)C(=O)c2ccc(C[C@@H]3CC[C@H]([C@H](O)c4ccccc4)N3)cc2)c1C [Example 12-B, N-((5-ethyl-4-methyl-1H-pyrazol-3-yl)methyl)-4-(((2S,5R)-5-((R)-hydroxy (phenyl)methyl)pyrrolidin-2-yl)methyl)-N-methylbenzamide]",18,120,1.5
"CN(Cc1n[nH]c2c1CCC2)C(=O)c1ccc(C[C@@H]2CC[C@H]([C@H](O)c3ccc(Cl)nc3)N2)cc1 [Example 13-A, 4-(((2S,5R)-5-((R)-(6-chloropyridin-3-yl)(hydroxy)methyl)pyrrolidin-2-yl)methyl)-N-methyl-N-((1,4,5,6-tetrahydrocyclopenta[c]pyrazol-3-yl)methyl)benzamide]",2,99,–
"CN(Cc1n[nH]c2c1CCC2)C(=O)c1ccc(C[C@@H]2CC[C@H]([C@H](O)c3ccccc3)N2)cc1 [Example 13-B, 4-(((2S,5R)-5-((R)-hydroxy(phenyl)methyl)pyrrolidin-2-yl)methyl)-N-methyl-N-((1,4,5,6-tetrahydrocyclopenta[c]pyrazol-3-yl)methyl)benzamide]",3,113,1.5
"CN(Cc1n[nH]c2c1CCCC2)C(=O)c1ccc(C[C@@H]2CC[C@H]([C@H](O)c3ccc(Cl)nc3)N2)cc1 [Example 14-A, 4-(((2S,5R)-5-((R)-(6-chloropyridin-3-yl)(hydroxy)methyl)pyrrolidin-2-yl)methyl)-N-methyl-N-((4,5,6,7-tetrahydro-1H-indazol-3-yl)methyl)benzamide]",3,108,–
"CN(Cc1n[nH]c2c1CCCC2)C(=O)c1ccc(C[C@@H]2CC[C@H]([C@H](O)c3cccnc3)N2)cc1 [Example 14-H, 4-(((2S,5R)-5-((R)-hydroxy(pyridin-3-yl)methyl)pyrrolidin-2-yl)methyl)-N-methyl-N-((4,5,6,7-tetrahydro-1H-indazol-3-yl)methyl)benzamide]",55,101,19.5
"Cc1[nH]nc(CN(C)C(=O)c2ccc(C[C@@H]3CC[C@H]([C@H](O)c4ccc(Cl)nc4)N3)cc2)c1O [Example 15-A, 4-(((2S,5R)-5-((R)-(6-chloropyridin-3-yl)(hydroxy)methyl)pyrrolidin-2-yl)methyl)-N-((4-hydroxy-5-methyl-1H-pyrazol-3-yl)methyl)-N-methylbenzamide]",1,94,–
"Cc1[nH]nc(CN(C)C(=O)c2ccc(C[C@@H]3CC[C@H]([C@H](O)c4ccccc4)N3)cc2)c1O [Example 15-B, 4-(((2S, 5R)-5-((R)-hydroxy(phenyl)methyl)pyrrolidin-2-yl)methyl)-N-((4-hydroxy-5-methyl-1H-pyrazol-3-yl)methyl)-N-methylbenzamide]",5,112,5.9
"COc1c(CN(C)C(=O)c2ccc(C[C@@H]3CC[C@H]([C@H](O)c4ccc(Cl)nc4)N3)cc2)n[nH]c1C [Example 16-A, 4-(((2S,5R)-5-((R)-(6-chloropyridin-3-yl)(hydroxy)methyl)pyrrolidin-2-yl)methyl)-N-((4-methoxy-5-methyl-1H-pyrazol-3-yl)methyl)-N-methylbenzamide]",2,102,–
"COc1c(C)n[nH]c1CN(C)C(=O)c1ccc(C[C@@H]2CC[C@H]([C@H](O)c3ccccc3)N2)cc1 [Example 16-B, 4-(((2S,5R)-5-((R)-hydroxy(phenyl)methyl)pyrrolidin-2-yl)methyl)-N-((4-methoxy-5-methyl-1H-pyrazol-3-yl)methyl)-N-methylbenzamide]",10,101,6.2
"Cc1[nH]nc(CN(C)C(=O)c2ccc(C[C@@H]3CC[C@H]([C@H](O)c4ccc(Cl)nc4)N3)cc2)c1Cl [Example 17-A, N-((4-chloro-5-methyl-1H-pyrazol-3-yl)methyl)-4-(((2S,5R)-5-((R)-(6-chloropyridin-3-yl)(hydroxy)methyl)pyrrolidin-2-yl)methyl)-N-methylbenzamide]",4,94,–
"Cc1n[nH]c(CN(C)C(=O)c2ccc(C[C@@H]3CC[C@H]([C@H](O)c4ccccc4)N3)cc2)c1Cl [Example 17-B, N-((4-chloro-5-methyl-1H-pyrazol-3-yl)methyl)-4-(((2S,5R)-5-((R)-hydroxy(phenyl)methyl)pyrrolidin-2-yl)methyl)-N-methylbenzamide]",17,112,4.5
"C[C@H](c1nn(C)c(=O)o1)N(C)C(=O)c1ccc(C[C@@H]2CC[C@H]([C@H](O)c3ccc(Cl)nc3)N2)cc1 [Example 18-A, 4-(((2S,5R)-5-((R)-(6-chloropyridin-3-yl)(hydroxy)methyl)pyrrolidin-2-yl)methyl)-N-methyl-N—((R)-1-(4-methyl-5-oxo-4,5-dihydro-1,3,4-oxadiazol-2-yl)ethyl)benzamide]",8,101,–
"C[C@H](c1nn(C)c(=O)o1)N(C)C(=O)c1ccc(C[C@@H]2CC[C@H]([C@H](O)c3ccccc3)N2)cc1 [Example 18-B, 4-(((2S,5R)-5-((R)-hydroxy(phenyl)methyl)pyrrolidin-2-yl)methyl)-N-methyl-N—((R)-1-(4-methyl-5-oxo-4,5-dihydro-1,3,4-oxadiazol-2-yl)ethyl)benzamide]",68,105,8.6
"C[C@H](c1nn(C)c(=O)o1)N(C)C(=O)c1ccc(C[C@@H]2CC[C@H]([C@H](O)c3ccc(Cl)cc3)N2)cc1 [Example 18-G, 4-(((2S,5R)-5-((R)-(4-chlorophenyl)(hydroxy)methyl)pyrrolidin-2-yl)methyl)-N-methyl-N—((R)-1-(4-methyl-5-oxo-4,5-dihydro-1,3,4-oxadiazol-2-yl)ethyl)benzamide]",13,101,1.7
"CC(C)[C@H](c1nn(C)c(=O)o1)N(C)C(=O)c1ccc(C[C@@H]2CC[C@H]([C@H](O)c3ccc(Cl)nc3)N2)cc1 [Example 19-A, 4-(((2S,5R)-5-((R)-(6-chloropyridin-3-yl)(hydroxy)methyl)pyrrolidin-2-yl)methyl)-N-methyl-N—((R)-2-methyl-1-(4-methyl-5-oxo-4,5-dihydro-1,3,4-oxadiazol-2-yl)propyl) benzamide]",5,111,–
